These results are taken from publication PMC5843546 (Nature, 2018).

In one assay the target is DRD2 wild-type (Homo sapiens, UniProt P14416). As to the kind of experiment: biochemical.
Assay [1] concerns the target T1, DRD2-T4L(Sf9) I122^3.40A/L375^6.37A/L379^6.41A (Homo sapiens, UniProt P14416, I122A/L375A/L379A).
T1 sequence (P14416 with tags, fused parts or gaps I122A/L375A/L379A): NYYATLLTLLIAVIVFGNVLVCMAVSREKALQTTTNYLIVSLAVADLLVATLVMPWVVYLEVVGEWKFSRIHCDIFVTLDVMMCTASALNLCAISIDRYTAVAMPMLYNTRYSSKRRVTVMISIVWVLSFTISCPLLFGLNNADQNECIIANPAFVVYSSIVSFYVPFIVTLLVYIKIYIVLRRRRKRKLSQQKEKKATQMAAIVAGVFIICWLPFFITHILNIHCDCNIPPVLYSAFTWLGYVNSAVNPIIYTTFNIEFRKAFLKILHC
The assay can be described thus: biochemical.

A further assay addresses DRD2 W100^EL1A (Homo sapiens, UniProt P14416, W100A). The conditions noted are these: DRD2 W100^EL1A vs wild-type.
The target of another assay is DRD2 F110^3.28A (Homo sapiens, UniProt P14416, F110A). The conditions noted are these: DRD2 F110^3.28A vs wild-type.

As a reminder, the Ki is a dissociation constant, usually derived from enzyme kinetics or from competition with a known ligand. In the case of `O=c1[nH]c2cccc(N3CCN(Cc4cccc(-c5ccccc5)c4)CC3)c2o1` [Bifeprunox], the Ki on DRD2 wild-type (Ki) is 1.04 nM; on DRD2 wild-type (pKi) it was 0.302 nM; in assay [1] (Ki), 0.57 nM; in assay [1] (pKi) it was 0.562 nM.
As for `CNc1cc(OC)c(C(=O)NC2CCN(Cc3ccccc3)C2C)cc1Cl` (stereo not drawn) [Nemonapride, nemonapride], the “ΔpKd (mutant-WT)” value on DRD2 W100^EL1A was −0.98; at DRD2 F110^3.28A, 0.08.
